Test results as given in patent US10377711B2, “Cannabinoid type 1 receptor modulators” (priority 2014, dated 2019).

How the values were obtained:
[1] = molecular target: T1, CB1 receptor (HEK293 CB1 β-arrestin cells) (Homo sapiens, UniProt P21554); assay: PathHunter β-Arrestin assay, enhancement of anandamide stimulation; assay type: cell-based; conditions: maximum % increase in stimulation caused by anandamide
T1 construct: host or cells: HEK293 CB1 β-arrestin cells (PathHunter)
Excerpt: PathHunter™ β-Arrestin Assays
β-Arrestins are multifunctional intracellular proteins that interact with a structurally diverse group of cell surface receptors including GPCRs, to regulate cellular functions (see, e.g., Violin and Lefkowitz, 2007).
PathHunter™ enzyme fragment complementation is the most important method to measure β-arrestin recruitment. PathHunter™ β-Arrestin assays developed by DiscoveRX are revolutionary high-throughput screening assays for monitoring GPCR activation following ligand stimulation, without an imaging instrument, fluorescent protein tag, or radioactivity.
Instead, the assays detect GPCR activation through binding of β-arrestin to the expressed GPCR of interest, and measure the interaction of the two proteins using enzyme fragment complementation (EFC). The EFC approach offers a range of benefits for screening; including signal amplification and robust performance.
The larger portion of β-gal, termed EA for enzyme acceptor, is fused to the C-terminus of β-arrestin. The smaller, complementing fragment of β-gal, the ProLink™ tag, is expressed as a fusion protein with the GPCR of interest at the C-terminus. Upon activation, the GPCR is bound by β-arrestin. The interaction of β-arrestin and the GPCR forces the interaction of ProLink and EA, thus allowing complementation of the two fragments of β-gal and the formation of a functional enzyme capable of hydrolyzing substrate and generating a […] signal.
Using the PathHunter™ CB1 kit from DiscoveRX, a cannabinoid CB1 receptor agonist is added and activates the receptor, EA, which is fused to the C-terminus of β-arrestin, and then interacts with the ProLink™ tag which is fused to the CB1 receptor. This will result in the […] signal that is recorded by a luminescence plate reader. The […] signal is directly related to the activation of the receptor, therefore a higher concentration of agonist will yield a larger […] signal. The cannabinoid agonist is added in increasing concentrations to obtain an agonist dose response curve. With pre-incubation of a potential allosteric modulator, either an enhancement of agonist signalling with an allosteric enhancer or a decrease in the maximal response of the agonist with an allosteric inhibitor is expected.
All raw data are obtained as luminescence (relative light units), and are normalised and presented as a percentage of the maximal response for the endogenous cannabinoid CB1 receptor agonist anandamide (N-arachidonoylethanolamine).
The PathHunter™ β-Arrestin assay (from DiscoveRX, Fremont, USA) was performed as follows. HEK293 CB1 β-arrestin cells were plated 48 hours before use and incubated at 37° C., 5% CO2 in a humidified incubator. Test compounds were dissolved in dimethylsulfoxide (DMSO) and diluted in optimized cell culture media (OCC, as supplied by DiscoveRX) media to the required concentrations. 5 μL of test compound or vehicle solution was added to each well and incubated for 60 minutes at 37° C., 5% CO2 in a humidified incubator. 5 μL of increasing concentrations of anandamide was added to each well followed by a 90 minute incubation at 37° C., 5% CO2 in a humidified incubator. 55 μL of detection reagent (as supplied by DiscoveRX) was then added, followed by a further 90 minute incubation at room temperature in the dark. Chemiluminescence, reported in relative light units (RLU—a dimensionless value, standardised as a % of maximum stimulation with anandamide), was measured on a standard luminescence plate reader.
Data were plotted as % of maximal stimulation (Emax) caused by agonist versus the logarithm of concentration of agonist, in the presence or absence of a fixed concentration of test compound (modulator) or vehicle. For example, stimulation in the presence of agonist alone will give a value for stimulation expressed in RLU, which can be expressed as a range from 0% (at lowest agonist concentration, e.g., 1 nM) to 100% (at the highest agonist concentration, e.g., 10 μM). […]

in vitro = conditions: both, microsomes, pH 7.4
Experimental: Human and Rat Liver Microsomal Stability Assay
The metabolic stability of the compounds of the Formula (I) was measured by determination of the rate of compound disappearance when incubated in the presence of both human and rat liver microsomes. Liver microsomes are prepared from the endoplasmic reticulum of hepatocytes and are the primary source of the most important enzymes (cytochrome P450) involved in drug metabolism. Study of drug stability in the presence of liver microsomes is accepted as a valuable model permitting rapid prediction of in vivo drug stability.
Human and rat liver microsomes were obtained from a commercial source. Test compounds (3 μM) were incubated with pooled liver microsomes (male and female). Samples were incubated for a 45 minute period and removed at 5 time points and test compounds were analysed by LC-MS/MS.
The final incubation volume was 25 μL. A control incubation was included for each compound tested, where 0.1 M phosphate buffer pH 7.4 was added instead of NADPH. The control compounds testosterone and 7-hydroxycoumarin were included in each experiment and all incubations were performed singularly for each compound.
Each compound was incubated for 0, 5, 15, 30, and 45 minutes. The control (minus NADPH) was incubated for 45 minutes only. The reactions were stopped by the addition of 50 μL methanol containing internal standard at the appropriate time points. The incubation plates were centrifuged at 2500 rpm for 20 minutes at 4° C. to precipitate the protein.
Following protein precipitation, the sample supernatants were combined in cassettes of up to 4 compounds and analysed using standard LC-MS/MS conditions.
From a plot of the natural logarithm of the peak area ratio (i.e., the ratio of compound peak area:internal standard peak area) against time, the gradient of the line was determined. Subsequently, half-life and intrinsic clearance were calculated using the equations below: Eliminated Rate Constant (k)=(−Gradient).

CCI model = conditions: antagonized by rimonabant; cited from earlier work
[2] = test system: C57BL/6J mice; FAAH knockout mice; conditions: cited from earlier work

T1 sequence (P21554 whole entry): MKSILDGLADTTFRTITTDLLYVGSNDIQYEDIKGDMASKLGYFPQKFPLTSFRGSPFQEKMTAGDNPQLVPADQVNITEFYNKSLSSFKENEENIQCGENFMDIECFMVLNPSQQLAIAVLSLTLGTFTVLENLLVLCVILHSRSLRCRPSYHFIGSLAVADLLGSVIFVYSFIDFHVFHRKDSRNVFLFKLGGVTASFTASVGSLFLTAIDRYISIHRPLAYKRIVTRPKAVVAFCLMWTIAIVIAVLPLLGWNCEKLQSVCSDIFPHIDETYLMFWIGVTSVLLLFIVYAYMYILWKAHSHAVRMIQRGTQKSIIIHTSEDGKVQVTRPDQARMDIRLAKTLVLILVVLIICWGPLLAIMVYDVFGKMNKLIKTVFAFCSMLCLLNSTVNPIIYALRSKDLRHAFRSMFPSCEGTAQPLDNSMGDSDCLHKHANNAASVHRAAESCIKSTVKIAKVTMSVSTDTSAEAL

Cc1ccc2c(C(C[N+](=O)[O-])c3cccs3)c(-c3ccccc3)[nH]c2c1 (centres unmarked) [ZCZ011]
Potency % Enhancement 100 nM ([1]; 100 nM test compound): 56.8%
Potency % Enhancement 1000 nM ([1]; 1000 nM test compound): 126.0%
half-life at 3 μM (in vitro; human): 36.7 min
microsomal CLint at 3 μM (in vitro; human): 37.8 µL/min/mg
half-life at 3 μM (in vitro; rat): 8.1 min
microsomal CLint at 3 μM (in vitro; rat): 127 µL/min/mg
allodynia induced by mechanical (von Frey filaments) or cold (acetone) stimulation (CCI model): significantly reversed
enhancement of the pharmacological effects of CP55,940 ([2]; 40 mg/kg, C57BL/6J mice): significantly enhanced
enhancement of the pharmacological effects of AEA ([2]; 40 mg/kg, fatty acid amide hydrolase (FAAH) knockout mice): significantly enhanced
potency of AEA in the drug discrimination assay ([2]; 40 mg/kg): significantly increasing
catalepsy, thermal antinociception, hypothermia or changes in locomotor activity ([2]; given alone): did not produce
